Tested on: E. coli
Test: Kirby-Bauer Zone of Inhibition test (AATCC 147-1998), impregnated test wafers on agar plate
Type: cell-based
Details: 50 ml FAB, 1.1 g calcium chloride plus antimicrobial agent; impregnated wafer
Method: A variety of absorbent binder compositions were formulated to contain the FAB superabsorbent polymer material, calcium chloride, and an antimicrobial agent. The absorbent binder composition contained 50 ml FAB and 1.1 g (10 mmole) calcium chloride, and the antimicrobial agent as noted in Table 2 below. The absorbent binder compositions were then analyzed according to the Kirby-Bauer Antibiotic test method which is a Zone of Inhibition test method (This test method is also known by the American Association of Textile Chemists and Colorists (AATCC) as test method 147-1998.). In this example, the antimicrobial agents incorporated into an absorbent binder composition were Benzalkonium chloride, hydrogen peroxide, and a combination of the Benzalkonium chloride and hydrogen peroxide. According to the test method, the absorbent binder compositions were then brought into contact with test wafers to impregnate the test wafers with the absorbent binder compositions. The absorbent binder composition-impregnated test wafers were then brought into contact with various pathogenic bacteria on an agar plate and the agar plates were then left to incubate according to the test method. Following incubation, the distance between the wafers and the growth of bacteria was measured.

CN[C@H](CC(C)C)C(=O)N[C@H]1C(=O)N[C@@H](CC(N)=O)C(=O)N[C@H]2C(=O)N[C@H]3C(=O)N[C@H](C(=O)N[C@H](C(=O)O)c4cc(O)cc(O)c4-c4cc3ccc4O)[C@H](O)c3ccc(c(Cl)c3)Oc3cc2cc(c3O[C@@H]2O[C@H](CO)[C@@H](O)[C@H](O)[C@H]2O[C@H]2C[C@](C)(N)[C@H](O)[C@H](C)O2)Oc2ccc(cc2Cl)[C@H]1O [vancomycin wafer, vancomycin]
E. coli Zone of Inhibition: 1.9 cm
